Laboratory results from US20100292135A1 (priority 2005, published 2010).

Key:
[1] = tested on: RecA-dependent SOS induction in GY7313 cells; assay: SOS induction by MMC in permeabilized E. coli (sfi-lacZ reporter, β-galactosidase); format: cell-based; settings: MMC-induced
[2] = tested on: wild type (AB1157) bacteria; assay: Development of chloramphenicol resistance (mean latency time, OD600 growth); format: cell-based; settings: in the presence of RecA
RecA protein [3] = molecular target: T1, RecA protein (Escherichia coli, UniProt P0A7G6); settings: cited from earlier work
T1 sequence (P0A7G6 2-353): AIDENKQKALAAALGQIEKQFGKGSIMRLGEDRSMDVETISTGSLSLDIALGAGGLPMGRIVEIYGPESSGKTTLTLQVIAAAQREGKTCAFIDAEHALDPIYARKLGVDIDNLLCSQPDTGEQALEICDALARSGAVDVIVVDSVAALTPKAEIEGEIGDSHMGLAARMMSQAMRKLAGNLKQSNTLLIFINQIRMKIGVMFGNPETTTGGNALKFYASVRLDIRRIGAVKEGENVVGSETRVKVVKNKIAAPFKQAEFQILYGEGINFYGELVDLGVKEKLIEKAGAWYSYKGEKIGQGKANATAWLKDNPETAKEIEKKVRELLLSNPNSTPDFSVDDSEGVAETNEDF

RecA protein [4] = molecular target: T1, RecA protein; format: biochemical, E. coli
RecA protein [5] = molecular target: T1, RecA protein; assay: biochemical; format: binding, E. coli

Which “inhibition of SOS induction (β-galactosidase)” value [1] does the source give for `O=P(O)(O)OP(=O)(O)OC[C@H]1O[C@@H](n2cnc3c(Nc4cccc5ccccc45)ncnc32)[C@H](O)[C@@H]1O` [Compound 1, N^6-(1-Naphthyl)-Adenosine-5′-O-Diphosphate] here?
The value was “significantly inhibits SOS induction”.

With `CCOS(C)(=O)=O` [EMS] as the compound, how does the “effect on chloramphenicol resistance development” value [2] read?
Its value is “speed resistance development”.

Which “S0.5 for ATP, reported literature values” (RecA protein [3]) does the source give for `Nc1ncnc2c1ncn2[C@@H]1O[C@H](COP(=O)(O)OP(=O)(O)OP(=O)(O)O)[C@@H](O)[C@H]1O` [ATP, adenosine triphosphate] here?
The value was 40 to 45 µM.

And the “Hill coefficient nH” value (RecA protein [4])?
Its value is 3.

And the “Michaelis constant S0.5 for RecA and ATP” value (RecA protein [4])?
Its value is 47 µM.

With `O[C@@H](CS)[C@@H](O)CS` [L-DTT, 1,4-dithio-L-threitol] as the compound, how does the “inhibition of RecA ATPase activity (in words)” value (RecA protein [4]) read?
The value was “no inhibition”.

For `Nc1ncnc2c1ncn2[C@@H]1O[C@H](COP(=O)(O)OP(=O)(O)O)[C@@H](O)[C@H]1O` [ADP, adenosine diphosphate], which Kd (RecA protein [5]) is on record?
The Kd was 84 ± 27 µM.

Which “effect on chloramphenicol resistance development” value [2] does the source give for `NCCCCNCCCN` [spermidine] here?
Its value is “retards resistance development”.
